The target in one test is T1, rat ASIC3 (Rattus norvegicus, UniProt O35240).
T1 construct: expressed in transfected cells; host or cells: Xenopus laevis oocytes (cRNA injection)
T1 sequence (O35240 1-533): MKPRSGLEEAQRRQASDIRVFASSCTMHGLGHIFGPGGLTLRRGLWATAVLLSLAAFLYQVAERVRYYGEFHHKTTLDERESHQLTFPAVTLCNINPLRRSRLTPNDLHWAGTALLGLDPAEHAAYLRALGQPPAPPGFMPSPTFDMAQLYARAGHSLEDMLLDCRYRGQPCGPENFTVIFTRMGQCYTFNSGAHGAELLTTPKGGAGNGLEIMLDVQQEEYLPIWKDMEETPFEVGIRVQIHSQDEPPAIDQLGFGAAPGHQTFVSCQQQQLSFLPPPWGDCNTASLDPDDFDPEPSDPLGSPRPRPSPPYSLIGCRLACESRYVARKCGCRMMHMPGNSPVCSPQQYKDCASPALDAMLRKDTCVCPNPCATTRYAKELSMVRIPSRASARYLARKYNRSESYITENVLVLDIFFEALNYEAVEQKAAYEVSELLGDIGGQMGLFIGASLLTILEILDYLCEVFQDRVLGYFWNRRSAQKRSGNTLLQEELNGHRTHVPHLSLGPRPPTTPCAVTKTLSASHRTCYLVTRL
Briefly: Two-electrode voltage clamp on X. laevis oocytes expressing rat ASIC3. Format: cell-based. As to the method: Testing the activity of synthetic sevanol (s706) (as a mixture of 75% of sevanol and 25% of isosevanol) and its analogues (s590, EA, and s788) was carried out by the standard two-electrode voltage clamp method on X. laevis oocytes expressing rat ASIC1a and ASIC3 channels. The activation of the channels was performed using a rapid change of the solution from conditioning pH 7.4 to a solution with pH 5.5. Sevanol and its two analogues, s590 and EA, inhibited ASIC1a and ASIC3 channels.
Oocytes were harvested from female frogs anaesthetized with tricaine methane sulfonate (MS222) (0.17% solution), and the surgery was performed in an ice bath to avoid heavy bleeding. Defolliculated stage IV and V cells were injected with 2.5 and 10 ng cRNA, synthesized from PCi plasmids containing the rat ASIC1a and rat ASIC3 isoforms, respectively, using the Nanoliter 2000 microinjection system (World Precision Instruments, USA). The injected oocytes were kept for 2–3 days at 17 to 19 °C, and then for up to 5 days at 15 °C in a ND96 medium containing (in mM) 96 NaCl, 2 KCl, 1.8 CaCl2, 1 MgCl2, and 5 HEPES titrated to pH 7.4 with NaOH supplemented with gentamycin (50 μg/mL). Two-electrode voltage clamp recordings were performed at a holding potential of −50 mV using a GeneClamp 500 amplifier (Axon Instruments), and the data were filtered at 20 Hz and digitized at 100 Hz by an AD converter L780 (LCard, Russia). Microelectrodes were filled with 3 M KCl. The conditioning bath solution was ND96; the pH was adjusted to 7.4. The activating test solution was constructed based on the ND-96 buffer, in which 5 mM HEPES was replaced with 10 mM MES and pH was adjusted to 5.5. A computer-controlled valve system was used to achieve a rapid solution exchange in the recording chamber. A four parameter logistic equation was used for the curve-fitting analysis: F(x) = ((a1 − a2)/(1 + (x/x0)n)) + a2, where x is the concentration of the compound; F(x) is the response value at a given concentration of the compound; a1 is the control response value (fixed at 100%); x0 is the IC50 value; n is the Hill coefficient (slope factor); and a2 is the response value at the maximal inhibition (% of control).
Figure 2 The inhibitory activity of sevanol (s706) and its analogues. Currents were elicited by a drop from pH 7.4 to 5.5; the holding potential was −50 mV; (A,C) are dose–response curves for s706, s590 and EA inhibitory effects on ASIC1a and ASIC3 channels, respectively; (B,D) are reciprocal IC50 values for s706, s590 and EA inhibitory effects on ASIC1a and ASIC3 channels, respectively. The data were fitted by the logistic equation. Each point is the mean ± SEM of 5–6 measurements. * p < 0.05, ** p < 0.005.
A general note: In two-electrode clamp one electrode senses voltage and the other passes current.

The test system of a further test is human ASIC3 channels. Conditions: natural sevanol; read-out: IC50, inhibition of human ASIC3 channels; cited from earlier work.

Broadly, the IC50 is the concentration that gives 50% inhibition.

With `O=C(O)CC(C(=O)O)C(OC(=O)C1=Cc2cc(O)c(O)cc2C(c2ccc(O)c(O)c2)C1C(=O)OC(C(=O)O)C(CC(=O)O)C(=O)O)C(=O)O` (stereo not shown) [sevanol], the half-maximal inhibitory concentration (IC50) at rat ASIC3 (X. laevis oocytes, pH drop 7.4 to 5.5, holding potential −50 mV, mean ± SEM of 5–6, read-out: IC50, inhibition of ASIC3 current) was 175 ± 18 µM; with human ASIC3 channels it was 300 µM. For the same compound, the “maximal current block, ASIC3” value on rat ASIC3 (pH 7.4 to 5.5, effect reversible) is on record as 100%. The “effectiveness in inhibiting ASIC3 relative to ASIC1a” value on rat ASIC3 (ratio of ASIC1a and ASIC3 inhibition) was determined as 1.3 times.

Values taken from publication PMC7466040, “Sevanol and Its Analogues: Chemical Synthesis, Biological Effects and Molecular Docking” (Pharmaceuticals, 2020).
